Measured values: US11291646B2, “Nozzle assembly and methods for use” (CRITITECH, INC., priority 2015, dated 2022)

Experiment: Bulk density
Type: physicochemical
Settings: docetaxel; room temperature
Method: The mass of the drug was measured to a nearest 0.1 mg, the volume was determined to the nearest 0.1 mL and the density calculated.

Bulk Density: 0.24 g/cm3
Structure (SMILES): CC(=O)O[C@@]12CO[C@@H]1C[C@H](O)[C@@]1(C)C(=O)[C@H](O)C3=C(C)[C@@H](OC(=O)[C@H](O)[C@@H](NC(=O)OC(C)(C)C)c4ccccc4)C[C@@](O)([C@@H](OC(=O)c4ccccc4)[C@H]21)C3(C)C [Docetaxel Raw Material, docetaxel]
